The values below come from US6472401B2, “Methods for the treatment of vascular disorders” (Schering Corporation, priority 1999, dated 2002).

Molecules are shown by their SMILES. Like-named read-outs stand apart in the source and are kept apart here.

The conditions of assay [1]: for recurrence of symptoms of depression: administered indefinitely.
Assay [2] can be described thus: Administration of antihistamine to patients suffering from clinical depression (Example 2). The conditions noted are these: for recurrence of symptoms of depression: patients known to have suffered from depression, not currently experiencing symptoms, administered indefinitely; for reduction of symptoms of depression: patients suffering from depression; for recurrence or worsening of symptoms of depression: responders continue treatment at their respective dosage level.
Procedure: Patients suffering from clinical depression are administered a non-sedating antihistamine (loratadine) or a low-sedating antihistamine (cetirizine) to relieve the symptoms of depression. Six treatment groups are contemplated.

Setting [3] is: patients known to have suffered from depression and subject to allergic rhinitis, no current symptoms of either.
Setting [4] is: patients known to have suffered from depression and suffering from allergic rhinitis, no current depression symptoms.
Where [5] appears, read: patients suffering from depression and allergic rhinitis.
Setting [6] is: patients suffering from depression, subject to allergic rhinitis but not currently suffering from it.
The mark [7] stands for this setting: responders subject to allergic rhinitis but without current rhinitis symptoms continue treatment at their respective dosage level.
[8] abbreviates: responders suffering from allergic rhinitis continue treatment at their respective dosage level.

Regarding `O=C(O)COCCN1CCN(C(c2ccccc2)c2ccc(Cl)cc2)CC1` (stereo not drawn) [cetirizine], the “recurrence of symptoms of depression” value in assay [1] (setting [3]), in assay [1] (setting [4]) and in assay [2] was “a significant number of patients do not experience recurrence of symptoms of depression” throughout. The “reduction of symptoms of depression” value in assay [1] (setting [5]), in assay [1] (setting [6]) and in assay [2] was “A significant number of patients experience a reduction of their symptoms of depression” in each case. For the same compound, the “recurrence or worsening of symptoms of depression” value in assay [1] (setting [7]), in assay [1] (setting [8]) and in assay [2] was “a significant number of patients do not experience recurrence or worsening of symptoms of depression” each time.
In the case of `CCOC(=O)N1CCC(=C2c3ccc(Cl)cc3CCc3cccnc32)CC1` [loratadine], the “recurrence of symptoms of depression” value in assay [1] (setting [3]), in assay [1] (setting [4]) and in assay [2] was “a significant number of patients do not experience recurrence of symptoms of depression” in each case. The “reduction of symptoms of depression” value in assay [1] (setting [5]), in assay [1] (setting [6]) and in assay [2] was “A significant number of patients experience a reduction of their symptoms of depression” each time. Besides, the “recurrence or worsening of symptoms of depression” value in assay [1] (setting [7]), in assay [1] (setting [8]) and in assay [2] was “a significant number of patients do not experience recurrence or worsening of symptoms of depression” throughout.
